This is an account of results in patent US20260256925A1, “INDAZOLE DERIVATIVES AS ESTROGEN RECEPTOR DEGRADERS” (REGENTS OF THE UNIVERSITY OF MICHIGAN, priority 2022, published 2026).

Assay [1] can be described thus: Cell growth assay, WST-8 (compounds B1-B126). It counts as cell-based. The following applies: 96 h; T47D cell line, WST-8, 4 days; read-out: Cell growth inhibition in T47D cell line IC50. The method, boiled down:
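Cells seeded at 1500/well overnight, treated one day later with compound doses for 4 days, then 10% WST-8 added for 2.5 h at 37° C in CO2. Absorbance at 450 nm, expressed relative to vehicle control over three independent repeats.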
A general note: Tetrazolium assays rely on reduction of a dye to a coloured formazan, in cell work by metabolically active cells.

The target in the next assay is T1, ER (Homo sapiens, UniProt P03372).
T1 construct: endogenous in cells; probably T47D or MCF-7
T1 sequence (P03372 1-595): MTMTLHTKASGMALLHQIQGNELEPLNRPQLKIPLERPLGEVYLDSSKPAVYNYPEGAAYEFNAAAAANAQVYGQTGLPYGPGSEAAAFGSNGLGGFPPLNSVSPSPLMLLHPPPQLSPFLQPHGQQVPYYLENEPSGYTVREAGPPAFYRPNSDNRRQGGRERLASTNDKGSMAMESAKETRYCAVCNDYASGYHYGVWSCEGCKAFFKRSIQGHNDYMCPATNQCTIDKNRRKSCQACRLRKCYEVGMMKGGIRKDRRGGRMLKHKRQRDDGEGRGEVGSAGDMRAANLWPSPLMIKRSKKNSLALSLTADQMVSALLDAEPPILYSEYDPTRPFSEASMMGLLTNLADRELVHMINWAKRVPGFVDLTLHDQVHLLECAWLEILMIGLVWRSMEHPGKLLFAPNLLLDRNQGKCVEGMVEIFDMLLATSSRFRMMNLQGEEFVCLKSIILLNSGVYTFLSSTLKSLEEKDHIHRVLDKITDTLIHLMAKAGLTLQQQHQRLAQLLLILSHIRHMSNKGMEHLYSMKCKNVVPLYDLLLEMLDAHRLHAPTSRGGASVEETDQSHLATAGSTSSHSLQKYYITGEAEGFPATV
As to the kind of experiment: In-cell western blot analysis, relative ER percentage (compounds B1-B126). It counts as cell-based. The following applies: ER degradation, 16 hours, read-out: ICW DC50. The method, boiled down: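 Cells seeded at 40,000 or 10,000 per well overnight were treated with compound (final 0.5% DMSO) for 16 hours, then fixed with formaldehyde. ER was detected with primary antibodies and anti-rabbit-680/anti-mouse-800 secondaries on a CLX reader. Signal is expressed relative to untreated and DMSO wells set as 100%.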

Structures are written as SMILES. pIC50: −log10 of the molar value.

For orientation: pIC50 means the negative decadic logarithm of the IC50, by convention in mol/L. Broadly, the DC50 is the concentration at which degradation of the target reaches its halfway point. As to `C[C@@H]1Cc2c(ccc3[nH]ncc23)[C@@H](c2ccc(N3CCC4(CC3)CN(C(=O)CN3CCC5(CC3)COc3c5ccc5c3CN(C3CCC(=O)NC3=O)C5=O)C4)cn2)N1CC(F)(F)F` (stereo partly drawn) [Compound B78, 3-(1′-(2-(7-(6-((6S,8R)-8-methyl-7-(2,2,2-trifluoroethyl)-6,7,8,9-tetrahydro-3H-pyrazolo[4,3-f]isoquinolin-6-yl)pyridin-3-yl)-2,7-diazaspiro[3.5]nonan-2-yl)-2-oxoethyl)-6-oxo-6,8-dihydro-2H,7H-spiro[furo[2,3-e]isoindole-3,4′-piperidin]-7-yl)piperidine-2,6-dione], in assay [1], the negative-log IC50 (pIC50) is over 9.00. The DC50 at ER was under 10 nM.
For `COc1cc(N2CCC3(CC2)CC(CN2CCN4c5cc6c(cc5OC[C@@H]4C2)C(=O)N(C2CCC(=O)NC2=O)C6)CO3)ccc1[C@@H]1c2ccc3[nH]ncc3c2C[C@@H](C)N1CC(F)F` (stereo partly drawn) [Compound B79, 3-((4aS)-3-((8-(4-((6S,8R)-7-(2,2-difluoroethyl)-8-methyl-6,7,8,9-tetrahydro-3H-pyrazolo[4,3-f]isoquinolin-6-yl)-3-methoxyphenyl)-1-oxa-8-azaspiro[4.5]decan-3-yl)methyl)-8-oxo-1,2,3,4,4a,5,8,10-octahydro-9H-pyrazino[1′,2′:4,5][1,4]oxazino[2,3-f]isoindol-9-yl)piperidine-2,6-dione], in assay [1], the pIC50 is over 9.00. For the same compound, on ER, the DC50 was under 10 nM.
For `COc1cc(N2CCC3(CC2)CC(CN2CCN4c5ccc6c(c5OC[C@H]4C2)CN(C2CCC(=O)NC2=O)C6=O)CO3)ccc1[C@@H]1c2ccc3[nH]ncc3c2C[C@@H](C)N1CC(F)F` (stereo partly drawn) [Compound B80, 3-((5aR)-7-((8-(4-((6S,8R)-7-(2,2-difluoroethyl)-8-methyl-6,7,8,9-tetrahydro-3H-pyrazolo[4,3-f]isoquinolin-6-yl)-3-mcthoxyphenyl)-1-oxa-8-azaspiro[4.5]decan-3-yl)methyl)-1-oxo-1,3,5,5a,6,7,8,9-octahydro-2H-pyrazino[1′,2′:4,5][1,4]oxazino[2,3-e]isoindol-2-yl)piperidine-2,6-dione], in that order: over 9.00 and under 10 nM.
For the compound `COc1cc(N2CCC3(CC2)CC(CN2CCN4c5ccc6c(c5OC[C@H]4C2)CN([C@H]2CCC(=O)NC2=O)C6=O)CO3)ccc1[C@@H]1c2ccc3[nH]ncc3c2C[C@@H](C)N1CC(F)F` (stereo partly drawn) [Compound B81, (3S)-3-((5aR)-7-((8-(4-((6S,8R)-7-(2,2-difluoroethyl)-8-methyl-6,7,8,9-tetrahydro-3H-pyrazolo[4,3-f]isoquinolin-6-yl)-3-methoxyphenyl)-1-oxa-8-azaspiro[4.5]decan-3-yl)methyl)-1-oxo-1,3,5,5a,6,7,8,9-octahydro-2H-pyrazino[1′,2′:4,5][1,4]oxazino[2,3-e]isoindol-2-yl)piperidine-2,6-dione], in assay [1], the pIC50 is over 9.00. In addition, the 50% degradation concentration (DC50) on ER was under 10 nM.
For `COc1cc(N2CCC3(CC2)CC(CN2CCN4c5ccc6c(c5OC[C@H]4C2)CN(C2CCC(=O)NC2=O)C6=O)C3)ccc1[C@@H]1c2ccc3[nH]ncc3c2C[C@@H](C)N1CC(F)F` (stereo partly drawn) [Compound B82, 3-((R)-7-((7-(4-((6S,8R)-7-(2,2-difluoroethyl)-8-methyl-6,7,8,9-tetrahydro-3H-pyrazolo[4,3-f]isoquinolin-6-yl)-3-methoxyphenyl)-7-azaspiro[3.5]nonan-2-yl)methyl)-1-oxo-1,3,5,5a,6,7,8,9-octahydro-2H-pyrazino[1′,2′:4,5][1,4]oxazino[2,3-e]isoindol-2-yl)piperidine-2,6-dione], in that order: over 9.00 and 10 to 100 nM.
`COc1cc(N2CC3(CCC(CN4CCN5c6ccc7c(c6OC[C@H]5C4)CN(C4CCC(=O)NC4=O)C7=O)CC3)C2)ccc1[C@@H]1c2ccc3[nH]ncc3c2C[C@@H](C)N1CC(F)F` (stereo partly drawn) [Compound B84, 3-((R)-7-((2-(4-((6S,8R)-7-(2,2-difluoroethyl)-8-methyl-6,7,8,9-tetrahydro-3H-pyrazolo[4,3-f]isoquinolin-6-yl)-3-methoxyphenyl)-2-azaspiro[3.5]nonan-7-yl)methyl)-1-oxo-1,3,5,5a,6,7,8,9-octahydro-2H-pyrazino[1′,2′:4,5][1,4]oxazino[2,3-e]isoindol-2-yl)piperidine-2,6-dione]: the pIC50 in assay [1] is under 8.00. Besides, the 50% degradation concentration (DC50) at ER was over 100 nM.
On the same counts, the results for `COc1cc(N2CC3(CCC(CN4CCN5c6ccc7c(c6OC[C@@H]5C4)CN(C4CCC(=O)NC4=O)C7=O)CC3)C2)ccc1[C@@H]1c2ccc3[nH]ncc3c2C[C@@H](C)N1CC(F)F` (stereo partly drawn) [Compound B85, 3-((S)-7-((2-(4-((6S,8R)-7-(2,2-difluoroethyl)-8-methyl-6,7,8,9-tetrahydro-3H-pyrazolo[4,3-f]isoquinolin-6-yl)-3-methoxyphenyl)-2-azaspiro[3.5]nonan-7-yl)methyl)-1-oxo-1,3,5,5a,6,7,8,9-octahydro-2H-pyrazino[1′,2′:4,5][1,4]oxazino[2,3-e]isoindol-2-yl)piperidine-2,6-dione] are under 8.00 and 10 to 100 nM.
For the compound `C[C@@H]1Cc2c(ccc3[nH]ncc23)[C@@H](c2ccc(N3CC4(CCC(CN5CCN6c7ccc8c(c7OC[C@H]6C5)CN(C5CCC(=O)NC5=O)C8=O)CC4)C3)cn2)N1CC(F)F` (stereo partly drawn) [Compound B86, 3-((R)-7-((2-(6-((6S,8R)-7-(2,2-difluoroethyl)-8-methyl-6,7,8,9-tetrahydro-3H-pyrazolo[4,3-f]isoquinolin-6-yl)pyridin-3-yl)-2-azaspiro[3.5]nonan-7-yl)mcthyl)-1-oxo-1,3,5,5a,6,7,8,9-octahydro-2H-pyrazino[1′,2′:4,5][1,4]oxazino[2,3-e]isoindol-2-yl)piperidine-2,6-dione], in assay [1], the negative-log IC50 (pIC50) was 8.00 to 9.00. In addition, at ER, the DC50 was under 10 nM.
For the compound `C[C@@H]1Cc2c(ccc3[nH]ncc23)[C@@H](c2ccc(N3CC4(CCC(CN5CCN6c7ccc8c(c7OC[C@@H]6C5)CN(C5CCC(=O)NC5=O)C8=O)CC4)C3)cn2)N1CC(F)F` (stereo partly drawn) [Compound B87, 3-((S)-7-((2-(6-((6S,8R)-7-(2,2-difluoroethyl)-8-methyl-6,7,8,9-tetrahydro-3H-pyrazolo[4,3-f]isoquinolin-6-yl)pyridin-3-yl)-2-azaspiro[3.5]nonan-7-yl)methyl)-1-oxo-1,3,5,5a,6,7,8,9-octahydro-2H-pyrazino[1′,2′:4,5][1,4]oxazino[2,3-e]isoindol-2-yl)piperidine-2,6-dione], the pIC50 in assay [1] is 8.00 to 9.00. The DC50 on ER was under 10 nM.
On the same counts, the results for `C[C@@H]1Cc2c(ccc3[nH]ncc23)[C@@H](c2ccc(N3CC4(CCC(CN5CCN6c7cc8c(cc7OC[C@@H]6C5)C(=O)N(C5CCC(=O)NC5=O)C8)CC4)C3)cn2)N1CC(F)F` (stereo partly drawn) [Compound B88, 3-((S)-3-((2-(6-((6S,8R)-7-(2,2-difluoroethyl)-8-methyl-6,7,8,9-tetrahydro-3H-pyrazolo[4,3-f]isoquinolin-6-yl)pyridin-3-yl)-2-azaspiro[3.5]nonan-7-yl)methyl)-8-oxo-1,2,3,4,4a,5,8,10-octahydro-9H-pyrazino[1′,2′:4,5][1,4]oxazino[2,3-f]isoindol-9-yl)piperidine-2,6-dione] are 8.00 to 9.00 and under 10 nM.
Regarding `C[C@@H]1Cc2c(ccc3[nH]ncc23)[C@@H](c2ccc(N3CCC4(CC3)CC(CN3CCN5c6ccc(C(=O)N[C@H]7CCC(=O)NC7=O)nc6OC[C@H]5C3)C4)cn2)N1CC(F)(F)F` [Compound B89, (R)-N-((S)-2,6-dioxopiperidin-3-yl)-3-((7-(6-((6S,8R)-8-methyl-7-(2,2,2-trifluoroethyl)-6,7,8,9-tetrahydro-3H-pyrazolo[4,3-f]isoquinolin-6-yl)pyridin-3-yl)-7-azaspiro[3.5]nonan-2-yl)methyl)-1,2,3,4,4a,5-hexahydropyrazino[1,2-d]pyrido[2,3-b][1,4]oxazine-8-carboxamide], the negative-log IC50 (pIC50) in assay [1] was under 8.00. Moreover, the DC50 at ER is over 100 nM.
For `C[C@@H]1Cc2c(ccc3[nH]ncc23)[C@@H](c2ccc(N3CCC(CN4CCN5c6ccc(C(=O)N[C@H]7CCC(=O)NC7=O)nc6OC[C@H]5C4)CC3)cn2)N1CC(F)(F)F` [Compound B90, (R)-N-((S)-2,6-dioxopiperidin-3-yl)-3-((1-(6-((6S,8R)-8-methyl-7-(2,2,2-trifluoroethyl)-6,7,8,9-tetrahydro-3H-pyrazolo[4,3-f]isoquinolin-6-yl)pyridin-3-yl)piperidin-4-yl)methyl)-1,2,3,4,4a,5-hexahydropyrazino[1,2-d]pyrido[2,3-b][1,4]oxazine-8-carboxamide], in that order: 8.00 to 9.00 and 10 to 100 nM.
